Results as given in patent US20190336504A1, “TREATMENT AND PREVENTION OF CYTOKINE RELEASE SYNDROME USING A CHIMERIC ANTIGEN RECEPTOR IN COMBINATION WITH A KINASE INHIBITOR” (Novartis AG, priority 2016, published 2019).
Read-outs that look alike come from different tables or passages of the source.

Legend:
[1] = tested on: primary MCL cells; assay: Cytokine production of primary MCL cells incubated for 24 hours with ibrutinib; type: cell-based; conditions: FIG. 4F
Procedure: (§1) All graphs in FIGS. 4B-4F are representative of two independent experiments (5 mice per group). Student's t-test was used to compare two groups; in analysis where multiple groups were compared, one-way analysis of variance (ANOVA) was performed with Holm-Sidak correction for multiple comparisons. Survival curves were compared using the log-rank test. Asterisks represent p-values (*=<0.05, **=<0.01, ***=<0.001, ****=<0.0001) and “ns” means “not significant” (p>0.05).

[2] = tested on: B cell neoplasms; type: in vivo, mice
Source text: For FIGS. 3C-3E, all graphs were representative of two independent experiments (5 mice per group). Student's t-test was used to compare two groups. Survival curves were compared using the log-rank test. Asterisks represent p-values (*=<0.05, **=<0.01, ***=<0.001, ****=<0.0001) and “ns” means “not significant” (p>0.05).
as §1

[3] = tested on: primary MCL cells; type: in vivo, NOD-SCID gamma-chain deficient mice (NSG)
Procedure: This example describes the development of such a model generated by intravenously injecting NOD-SCID gamma-chain deficient mice (NSG) with primary MCL cells collected from a patient with relapsed MCL (FIG. 3A). NOD SCID Gamma-chain deficient mice were injected with 2×10^6 primary MCL cells intravenously. […] Mice were then followed up for clinical signs, T cell engraftment, tumor burden and survival.
NOD SCID Gamma-chain deficient mice were injected with 2×10^6 primary MCL cells intravenously. […] Mice were then followed up for clinical signs, T cell engraftment, tumor burden and survival. […] See, e.g., Ruella et al. Clin Cancer Res 2016; 10.1158/1078-0432.CCR-15-1527.

[4] = tested on: AML; conditions: summary statement
[5] = tested on: primary AML blasts; type: in vivo
Procedure: For the development of CRS preclinical models, NOD-SCID-γ chain−/− (NSG) transgenic for human interleukin-3, stem cell factor and granulocyte macrophage colony-stimulating factor (NSG-S) were used. These were purchased from the Stem Cell and Xenograft Core of the University of Pennsylvania (originally obtained from Jackson Laboratories). Schemas of the utilized xenograft models are discussed in detail in the relevant figures and the Results section herein. Cells were injected in 200 ul of phosphate-buffered saline at the indicated concentration into the tail veins.
Ruxolitinib was purchased from Selleckchem, dissolved in DMSO and diluted to the indicated concentrations. […] Blood. […] Blood. […] Blood. 2016.
See, e.g., Gill S, Tasian S K, Ruella M, et al. Preclinical targeting of human acute myeloid leukemia and myeloablation using chimeric antigen receptor-modified T cells. Blood. 2014; 123:2343-2354. In particular, NSG-S mice were engrafted with primary AML blasts (5×10^6) and bled after 2-4 weeks to confirm engraftment. Mice then were treated with high doses of CART123 1×10^6 by intravenous tail vein single injection and monitored with serial clinical examinations, weight recording and retro-orbital bleedings for leukemia burden assessment and cytokine analysis. […] (CART123 were injected on day 41 post AML injection in the experiment.)
The experiments in this Example investigated ruxolitinib as a modality to prevent or reduce CRS severity after CART123 in the AML xenograft model described herein. NSGS mice were engrafted with primary AML blasts (5×10^6) and bled after 2-4 weeks to confirm peripheral blood engraftment. NSGS mice bearing primary AML were treated with CART123 (1×10^6) by intravenous tail vein single injection along with ruxolitinib or vehicle control. The mice were randomized to receive different doses of ruxolitinib (30 mg/kg, 60 mg/kg or 90 mg/kg) or vehicle by oral gavage twice a day. Treatment started on the day of CART123 injection and continued for a week (FIG. 2A). Mice were then monitored with serial clinical examinations, weight recording, retro-orbital bleedings for leukemia burden assessment and cytokine analysis and followed for survival.

Question: For `C=CC(=O)N1CCC[C@@H](n2nc(-c3ccc(Oc4ccccc4)cc3)c3c(N)ncnc32)C1` [ibrutinib, 1-[(3R)-3-[4-Amino-3-(4-phenoxyphenyl)-1H-pyrazolo[3,4-d]pyrimidin-1-yl]piperidin-1-yl]prop-2-en-1-one], which cytokine production [1] is on record?
Answer: The cytokine production was “significant cytokine production in a dose-dependent manner”.

Question: And the T cell expansion ([2]; CART19-treated mice, ibrutinib or vehicle treatment, FIG. 4D)?
Answer: The T cell expansion was “augmented”.

Question: What about the “CRS after a CD19 CAR therapy” value ([2]; CD19 CAR therapy for B cell neoplasms, summary statement) of the same molecule?
Answer: The value was “improve or prevent CRS”.

Question: What about the “serum cytokines involved in CRS (Luminex)” value ([2]; mice treated with CART19+ibrutinib vs CART19, FIG. 4E) of the same molecule?
Answer: The value was “significant reduction”.

Question: What about the overall survival ([2]; mice treated with CART19 plus ibrutinib (vs CART19 plus vehicle), FIG. 4B, log-rank test) of the same molecule?
Answer: Its overall survival is “significantly increased”.

Question: And the “overall survival (OS)” value ([3]; CART19 + ibrutinib 125 mg/Kg/day in drinking water vs CART19 alone)?
Answer: Its value is “prolonged overall survival”.

Question: What about the “CART19 expansion in the PB” value ([3]; CART19 + ibrutinib vs CART19 alone) of the same molecule?
Answer: Its value is “augmented”.

Question: What about the “cytokines in the peripheral blood (IL-6, IFNg, TNFα, IL-2, GM-CSF)” value ([3]; day 4, ibrutinib-treated mice) of the same molecule?
Answer: Its value is “significantly reduced”.

Question: Which “cytokine release syndrome (CRS) after CART cell therapy” value ([4]; CART cell therapy for hematological cancers, such as AML) does the source give for `N#CC[C@H](C1CCCC1)n1cc(-c2ncnc3[nH]ccc23)cn1` [ruxolitinib, (3R)-3-cyclopentyl-3-[4-(7H-pyrrolo[2,3-d]pyrimidin-4-yl)pyrazol-1-yl]propanenitrile] here?
Answer: The value was “ameliorate cytokine release syndrome (CRS) severity or prevent CRS”.

Question: And the “anti-tumor effect of the CART therapy” value ([4]; combination with JAK-STAT kinase inhibitor)?
Answer: The value was “without significantly impairing”.

Question: And the “leukemia in peripheral blood of surviving mice” value ([5]; 70 days post AML injection, live human CD45 positive cells)?
Answer: The value was “all surviving mice had eradication of leukemia”.

Question: What about the anti-leukemic effect ([5]; all groups: CART123 + ruxolitinib 30, 60 or 90 mg/kg or vehicle) of the same molecule?
Answer: Its anti-leukemic effect is “equivalent anti-leukemic effect”.

Question: And the “T cell expansion in the peripheral blood” value ([5]; ruxolitinib 60 mg/kg + CART123)?
Answer: Its value is “blunted T cell expansion”.

Question: What about the leukemia burden ([5]; ruxolitinib 60 mg/kg + CART123) of the same molecule?
Answer: The leukemia burden was “leukemia eradication”.

Question: What about the “levels of inflammatory cytokines” value ([5]; ruxolitinib 60 mg/kg + CART123) of the same molecule?
Answer: The value was “reduced levels of inflammatory cytokines”.

Question: And the weight loss ([5]; ruxolitinib 60 mg/kg + CART123)?
Answer: Its weight loss is “transient weight loss”.

Question: And the survival ([5]; ruxolitinib 60 mg/kg + high dose CART123)?
Answer: The survival was “long-term disease free survival”.

Question: And the “clinical illness (CRS) manifested by weight loss” value ([5]; ruxolitinib 60 mg/kg oral gavage twice a day for a week + CART123, vs CART123 alone or + 30 mg/kg)?
Answer: The value was “less severe clinical illness”.

Question: What about the “clinical illness (CRS) manifested by weight loss” value ([5]; ruxolitinib 90 mg/kg oral gavage twice a day for a week + CART123, vs CART123 alone or + 30 mg/kg) of the same molecule?
Answer: The value was “less severe clinical illness”.

Question: What about the direct anti-tumor activity ([5]; ruxolitinib with CART123) of the same molecule?
Answer: Its direct anti-tumor activity is “no direct anti-tumor activity”.

Question: What about the “effect on anti-tumor activity of CART123” value ([5]; ruxolitinib with CART123) of the same molecule?
Answer: Its value is “did not impair”.
